“Also recorded” adds a separate entry of the source.
System: conscious dogs
Test: one-hour infusion of atriopeptin 24 in conscious dogs, renal hemodynamics and function, before and after α1-adrenergic receptor blockade
Type: in vivo, dog
Conditions: prazosin 1 mg/kg 40 minutes prior to one-hour atriopeptin 24 infusion
Description: In this example, I first infused conscious dogs for one hour with atriopeptin 24 and measured the effects on renal hemodynamics and function. At least one week later, I treated the same dogs with the α1 -adrenergic blocking agent, prazosin, 40 minutes prior to a one-hour atriopeptin 24 infusion.
The experiments were conducted using the following techniques and devices: female mongrel dogs were instrumented using sterile surgical techniques under sodium pentobarbital anesthesia (25 mg/kg). To measure renal blood flow, a Doppler ultrasonic flow transducer (Parks Electronics) was placed around the left renal artery. […]
Arterial pressure was recorded using the implanted catheter attached to a Statham P23Db strain gauge transducer. Renal blood flow was measured using an ultrasonic flowmeter (Model 806A, Parks Electronics) and the implanted Doppler flow transducer. Phasic arterial pressure and renal blood flow were recorded on magnetic tape (Bell and Howell 3700B) and played back on a direct writing oscillograph (Gould-Brush 2800S). […] Heart rate was calculated using a cardiotachometer (Beckman Model 80574) from the pressure pulse interval.
To measure renal function, urine samples were taken from the dogs, urine volume was measured and the concentration of urine and plasma sodium (Na) and potassium (K) was assayed using a flame photometer (Instrumentation Laboratories, Model 343). […]

COc1cc2nc(N3CCN(C(=O)c4ccco4)CC3)nc(N)c2cc1OC [prazosin]
effect of α1-adrenergic blockade on renal vasodilation produced by atriopeptin 24: renal blood flow remained elevated for the duration of the atriopeptin 24 infusion; also recorded: caused a sustained renal vasodilation

Source: US4749686A, “Combinations of renal vasodilators and α1 -adrenergic or ganglionic blocking agents and methods for treating diseases” (New York Medical College, priority 1986, dated 1988)
